Where a name gives a salt, the structure may show the parent alone. Read-outs that look alike come from different tables or passages of the source.
Experiments:
[1] = Cell proliferation and cytotoxicity MTT assay, T24; format: cell-based; settings: human, T24 tumor cells
Description: (§1) The wells of microtiter plates were seeded with 2000 cells/well (T24), 2500 cells/well (HT29), 5000 cells/well (HMVEC)or 2500 cells/well (IAFp2) in 100 μL, followed by an overnight culture for cell adhesion. […] Following culture for 72 hours, 3-(4,5-dimethyl-2-thiazolyl)-2,5-diphenyltetrazolium bromide (MTT; Sigma) at 2 mg/ml was added to each well (50 μL/well) and further incubated for 4 hours at 37° C. The medium was flicked out and 200 μL of a 1:1 solution of ethanol:acetone followed by 25 μL of glycine buffer (0.1 M glycine, 0.1M NaCl, pH 10.5) is added and the color measured by the absorbance at 570 nm.

GP IIb-IIIa (αIIbβ3) = molecular target: T1, GP IIb-IIIa (αIIbβ3) (Homo sapiens, UniProt P05106+P08514); experiment: Fibrinogen binding to immobilized GP IIb-IIIa (αIIbβ3)
T1 construct: purchased Calbiochem
Description: (§2) Nonbound fibrinogen was removed by five washes with binding buffer. Avidin conjugated to alkaline phosphatase (Sigma), diluted in binding buffer, was added and incubated for two hours at 37° C. The plates were washed five times with binding buffer, and after addition of the substrate PNPP (Pierce), the enzyme activity was measured by the absorbance at 405 nm.

placental αvβ3 = molecular target: T2, placental αvβ3 (Homo sapiens, UniProt P05106+P06756); experiment: Fibrinogen binding to immobilized αvβ3
T2 construct: purified active GP IIb-IIIa (Calbiochem) or olacental αvβ3 at 0.5 μg/ml; from tissue; host or cells: placenta
Description: as §2

[2] = test system: Chick Chorioallantoic Membrane (CAM) capillary formation; experiment: Chick chorioallantoic membrane (CAM) mesh assay; format: in vivo, chicken; settings: Day 12, 24 hr treatment
Description: Fertilized white leghorn chicken eggs (SPAFAS Inc., Norwich, Conn.) were received at day 0 and incubated for 3 days at 37 C with constant humidity. On day 3, eggs were rinsed with 70% ethanol and opened into 100 mm^2 tissue culture coated Petri dishes under aseptic conditions. The embryos were then returned to a humidified 38 C incubator for 7-9 additional days.
Vitrogen (Collagen Biomaterials, Palo Alto, Calif.) at a final concentration of 0.73 mg/ml and Matrigel (Becton Dickinson, Bedford, Mass.) at a final concentration of 10 mg/ml was directly pipetted onto Nylon meshes with 250 μm^2 openings which were cut into 4 mm×4 mm squares and autoclaved. Polymerization of meshes were under aseptic conditions, on bacteriological Petri dishes. The polymerization conditions for each substrate were identical; after mixing with or without […] of VPF/VEGF165 (Peprotech, Rocky Hill, N.J.) and/or compounds of interest, 40 μl were pipetted onto each mesh in a bacteriological Petri dish.
The Petri dish was placed in a humidified 37 C incubator with 5% CO2 for 30 minutes to allow polymerization followed by an incubation at 4 C for 2 hours.
In a tissue culture enclosure, meshes were placed onto the periphery of the CAM of a day 12-14 embryo, excluding areas containing major vessels. The embryos were then returned to the humidified 38 C incubator with 3% CO2 for 24 to 48 additional hours.
Embryos were removed from the incubator and meshes were viewed under a dissecting microscope for gross evaluation. Injection of 400 μl FITC dextran, MW 2,000,000 (Sigma, St. Louis, Mo.) through glass microcapillary tubes by infusion into the umbilical vein was performed at a rate of 200 μl per minute. The FITC dextran was allowed to circulate for 5 minutes and 3.7% formaldehyde in PBS was applied directly on each mesh. The embryos were then incubated at 4 C for 5 minutes and the meshes were dissected off the CAM and fixed in 3.7% formaldehyde for 10 minutes to overnight.
After fixation, meshes were mounted on slides with 90% glycerol in PBS and visualized on an inverted fluorescence microscope. A Nikon Diaphot with a Sony DXC-151A camera attached to the side port was used for capture of images and analysis was with the NIH Image 1.61 software program. For each mesh, 5 random staggered images (approximately 600 μm each) were captured. The areas of high intensity were highlighted and measured. Results are expressed as ability to suppress capillary formation after subtraction from negative control. Values were calculated as i inhibition, considering 100% the capillary density achieved by VPF in the presence of vitrogen alone minus the background levels in the absence of VPF. Negative values indicate angiogenic stimulation above the VPF positive control.

[3] = Cell proliferation and cytotoxicity MTT assay, IAFp2; format: cell-based; settings: IAFp2 skin fibroblasts, read-out: Cell proliferation and cytotoxicity IC50, IAFp2 Skin Fibroblast
Description: as §1

αvβ3 = molecular target: T3, αvβ3 (Homo sapiens, UniProt P05106+P06756); experiment: Cell attachment assay, K562 transfected with αvβ3; format: cell-based
T3 construct: expressed in transfected cells; host or cells: K562
Description: (§3) The wells of 96-well plates (Immunolon) were coated, by incubation overnight at 4° C., with 5 μg/ml of vitronectin or osteopontin, 10 μg/ml of fibronectin or 10 mg/ml BSA in PBS. The protein solution was flicked out and the wells were blocked with 10 mg/ml BSA (0.1 ml) for 1-2 hours at 37° C.
(§4) Cells were lifted with trypsin-EDTA and washed two times with Hank's balanced salt solution (Sigma) supplemented with 1 mM MgCl2. Cells (75,000 cells/well) were added to coated plates in triplicate and allowed to attach at 37° C. for 1 hour in the presence or absence of specific antibodies at 5 μ/ml or increasing concentrations of compounds of interest (0.001-10 μM). Nonadherent cells were removed by gentle washing twice with PBS. The adherent cells were solubilized with 1% triton X-100 and detected using a fluorescence plate reader (Perkin Elmer).
(§5) The number of attached cells was calculated based upon starched curves for each cell line used in the experiment. […] The results presented are the average of triplicate samples and representative of several separate assays.

[4] = Cell proliferation and cytotoxicity MTT assay, HT29; format: cell-based; settings: human, HT29 tumor cells
Description: as §1

α5β1 = molecular target: T4, α5β1 (Homo sapiens, UniProt P05556+P08648); experiment: Cell attachment assay, K562; format: cell-based; settings: ligand fibronectin, read-out: Cell attachment IC50, α5β1, Fibro-nectin
T4 construct: Cell Line; K562 transfected αvβ3; HT29; K562; endogenous in cells; host or cells: K562
Description: The wells of 96-well plates (Immunolon) were coated, by incubation overnight at 4° C., with 5 μg/ml of vitronectin or osteopontin, 10 μg/ml of fibronectin or 10 mg/ml BSA in PBS. The protein solution was flicked out and the wells were blocked with 10 mg/ml BSA (0.1 ml) for 1-2 hours at 37° C. Cells [HT29 (ATOC), HMVEC (Cell Systems), K562 or K562 transfected with αvβ3 (Blystone et al., 1994)] were loaded with a fluorescent marker, 5-chloromethylfluorescein diacetate (Molecular Probes, Eugene, Or) for 1 hour at 37° C., then incubated in fresh medium without the fluorescent marker for 1 hour.
as §4
The number of attached cells was calculated based upon starched curves for each cell line used in the experiment. Non-specific cell attachment (attachment to wells coated with BSA) was always less than 5%. The results presented are the average of triplicate samples and representative of several separate assays.

[5] = Cell proliferation and cytotoxicity MTT assay, HMVEC; format: cell-based; settings: human, HMVEC endothelial cells
Description: as §1

αvβ5 = molecular target: T5, αvβ5 (Homo sapiens, UniProt P06756+P18084); experiment: Cell attachment assay, HT29; format: cell-based
T5 construct: Cells [HT29 (ATOC), HMVEC (Cell Systems), K562 or K562 transfected with αvβ3; endogenous in cells; host or cells: HT29
Description: as §3, §4, §5

[6] = Cell attachment IC50, αvβ3, Osteo-Pontin, ligand osteopontin
[7] = Cell attachment IC50, αvβ3, Vitro-nectin, ligand vitronectin
[8] = HT29, ligand vitronectin, read-out: Cell attachment IC50, αvβ5, Vitro-Nectin
[9] = biotinylated-fibrinogen 10 nM, immobilized GP IIb-IIIa, read-out: IC50 values for the fibrinogen binding assay αIIbβ3
[10] = biotinylated-fibrinogen 10 nM, immobilized placental αvβ3, read-out: IC50 values for the fibrinogen binding assay αvβ3
[11] = ligand osteopontin, read-out: Cell attachment IC50, αvβ3, Osteo-Pontin

T4 sequence (P08648 42-894 limits assumed): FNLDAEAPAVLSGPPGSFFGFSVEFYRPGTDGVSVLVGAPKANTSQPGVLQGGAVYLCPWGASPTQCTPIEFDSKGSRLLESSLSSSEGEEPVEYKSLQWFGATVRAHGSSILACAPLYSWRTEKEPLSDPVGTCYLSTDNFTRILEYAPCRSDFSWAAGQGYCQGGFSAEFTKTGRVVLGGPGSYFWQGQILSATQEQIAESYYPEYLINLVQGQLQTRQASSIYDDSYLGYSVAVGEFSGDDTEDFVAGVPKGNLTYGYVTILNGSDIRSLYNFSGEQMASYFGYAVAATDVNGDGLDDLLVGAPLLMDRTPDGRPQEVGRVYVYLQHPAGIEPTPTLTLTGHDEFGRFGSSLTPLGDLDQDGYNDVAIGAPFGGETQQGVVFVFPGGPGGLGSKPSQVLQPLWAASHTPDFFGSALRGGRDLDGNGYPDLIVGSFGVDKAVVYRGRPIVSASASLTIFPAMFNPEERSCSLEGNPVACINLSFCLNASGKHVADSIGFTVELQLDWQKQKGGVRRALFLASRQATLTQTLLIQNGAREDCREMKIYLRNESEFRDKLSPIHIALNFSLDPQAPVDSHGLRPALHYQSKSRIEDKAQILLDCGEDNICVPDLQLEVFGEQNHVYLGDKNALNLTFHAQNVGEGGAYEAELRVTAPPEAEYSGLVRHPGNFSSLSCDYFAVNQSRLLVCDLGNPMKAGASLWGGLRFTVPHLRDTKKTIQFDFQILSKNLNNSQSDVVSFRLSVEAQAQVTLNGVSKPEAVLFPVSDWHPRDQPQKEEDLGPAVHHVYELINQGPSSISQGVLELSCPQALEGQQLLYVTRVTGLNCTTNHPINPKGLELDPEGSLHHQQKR
T4 sequence (P08648 895-1049 partner limits assumed): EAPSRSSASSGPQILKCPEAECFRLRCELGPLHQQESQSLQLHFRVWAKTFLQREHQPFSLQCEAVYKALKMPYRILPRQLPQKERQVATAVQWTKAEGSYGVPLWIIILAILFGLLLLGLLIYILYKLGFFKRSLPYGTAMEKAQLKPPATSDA
T4 sequence (P05556 21-798): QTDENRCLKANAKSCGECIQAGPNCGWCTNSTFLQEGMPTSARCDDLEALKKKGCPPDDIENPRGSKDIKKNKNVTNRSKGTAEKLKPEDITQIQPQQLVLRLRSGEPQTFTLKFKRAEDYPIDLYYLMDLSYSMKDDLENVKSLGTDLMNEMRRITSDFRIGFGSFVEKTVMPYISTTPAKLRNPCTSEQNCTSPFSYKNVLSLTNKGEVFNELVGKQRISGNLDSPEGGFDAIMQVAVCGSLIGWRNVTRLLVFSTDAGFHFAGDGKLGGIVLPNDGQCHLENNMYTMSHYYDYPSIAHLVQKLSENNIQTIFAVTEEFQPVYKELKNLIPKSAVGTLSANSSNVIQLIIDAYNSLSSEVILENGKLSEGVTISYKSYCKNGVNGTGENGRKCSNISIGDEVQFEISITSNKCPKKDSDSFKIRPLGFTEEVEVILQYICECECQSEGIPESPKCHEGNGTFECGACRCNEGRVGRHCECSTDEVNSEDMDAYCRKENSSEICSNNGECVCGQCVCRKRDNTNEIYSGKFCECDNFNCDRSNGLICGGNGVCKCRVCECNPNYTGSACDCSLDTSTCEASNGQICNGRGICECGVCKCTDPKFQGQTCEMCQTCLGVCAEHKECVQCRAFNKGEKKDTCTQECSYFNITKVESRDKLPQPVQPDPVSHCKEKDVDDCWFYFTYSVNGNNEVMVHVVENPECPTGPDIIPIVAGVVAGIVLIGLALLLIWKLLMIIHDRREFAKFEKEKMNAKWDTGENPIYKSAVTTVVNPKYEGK
T1 sequence (P08514 32-887 limits assumed): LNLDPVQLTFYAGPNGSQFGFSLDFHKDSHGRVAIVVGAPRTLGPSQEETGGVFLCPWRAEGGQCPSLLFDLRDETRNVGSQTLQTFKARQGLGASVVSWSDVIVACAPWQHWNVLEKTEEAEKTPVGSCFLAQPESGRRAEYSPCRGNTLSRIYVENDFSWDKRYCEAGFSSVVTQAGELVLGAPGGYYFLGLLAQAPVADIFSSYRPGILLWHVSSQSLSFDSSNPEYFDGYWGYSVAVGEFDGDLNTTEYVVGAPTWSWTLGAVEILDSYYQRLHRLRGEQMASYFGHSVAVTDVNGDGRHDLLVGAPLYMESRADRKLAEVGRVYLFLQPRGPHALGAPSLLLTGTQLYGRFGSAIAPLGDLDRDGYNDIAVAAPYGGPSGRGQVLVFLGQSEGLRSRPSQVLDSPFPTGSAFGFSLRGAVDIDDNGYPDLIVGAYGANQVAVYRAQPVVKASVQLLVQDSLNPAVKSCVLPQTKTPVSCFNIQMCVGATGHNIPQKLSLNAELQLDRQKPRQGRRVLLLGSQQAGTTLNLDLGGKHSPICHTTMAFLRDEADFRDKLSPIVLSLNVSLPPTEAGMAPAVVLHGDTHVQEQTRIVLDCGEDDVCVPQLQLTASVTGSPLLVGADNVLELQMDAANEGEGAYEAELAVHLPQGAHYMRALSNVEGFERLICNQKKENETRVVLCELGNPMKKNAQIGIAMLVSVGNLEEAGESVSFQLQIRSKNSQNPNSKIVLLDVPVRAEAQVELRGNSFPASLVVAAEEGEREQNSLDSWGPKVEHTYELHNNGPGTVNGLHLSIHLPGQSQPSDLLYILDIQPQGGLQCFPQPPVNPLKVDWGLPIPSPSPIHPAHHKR
T1 sequence (P08514 891-1039 partner limits assumed): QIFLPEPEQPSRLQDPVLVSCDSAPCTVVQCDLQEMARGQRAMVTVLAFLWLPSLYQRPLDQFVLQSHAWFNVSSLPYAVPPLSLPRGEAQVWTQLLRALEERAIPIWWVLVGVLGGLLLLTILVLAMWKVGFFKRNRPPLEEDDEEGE
T1 sequence (P05106 27-788): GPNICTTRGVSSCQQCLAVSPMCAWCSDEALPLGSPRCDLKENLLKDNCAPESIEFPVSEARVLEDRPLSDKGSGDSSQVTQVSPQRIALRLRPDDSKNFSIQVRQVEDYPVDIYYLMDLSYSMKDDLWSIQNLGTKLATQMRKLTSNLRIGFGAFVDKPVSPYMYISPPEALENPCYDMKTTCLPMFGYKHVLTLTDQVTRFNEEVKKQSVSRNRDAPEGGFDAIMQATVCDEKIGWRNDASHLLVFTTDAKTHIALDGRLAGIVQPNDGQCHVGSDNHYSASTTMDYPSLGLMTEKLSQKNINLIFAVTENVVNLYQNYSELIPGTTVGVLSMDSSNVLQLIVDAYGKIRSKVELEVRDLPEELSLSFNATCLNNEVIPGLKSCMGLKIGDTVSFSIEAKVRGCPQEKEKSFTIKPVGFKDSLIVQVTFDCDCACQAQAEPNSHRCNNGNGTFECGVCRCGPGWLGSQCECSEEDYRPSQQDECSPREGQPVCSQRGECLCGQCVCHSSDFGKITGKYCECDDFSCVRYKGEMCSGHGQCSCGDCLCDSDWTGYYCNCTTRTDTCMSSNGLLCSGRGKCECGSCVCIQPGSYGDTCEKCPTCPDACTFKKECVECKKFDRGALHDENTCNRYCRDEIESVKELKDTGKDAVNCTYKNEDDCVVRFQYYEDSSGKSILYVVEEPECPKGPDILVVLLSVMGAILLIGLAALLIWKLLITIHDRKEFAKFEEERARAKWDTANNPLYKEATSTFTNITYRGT
T2 sequence (P06756 31-889 limits assumed): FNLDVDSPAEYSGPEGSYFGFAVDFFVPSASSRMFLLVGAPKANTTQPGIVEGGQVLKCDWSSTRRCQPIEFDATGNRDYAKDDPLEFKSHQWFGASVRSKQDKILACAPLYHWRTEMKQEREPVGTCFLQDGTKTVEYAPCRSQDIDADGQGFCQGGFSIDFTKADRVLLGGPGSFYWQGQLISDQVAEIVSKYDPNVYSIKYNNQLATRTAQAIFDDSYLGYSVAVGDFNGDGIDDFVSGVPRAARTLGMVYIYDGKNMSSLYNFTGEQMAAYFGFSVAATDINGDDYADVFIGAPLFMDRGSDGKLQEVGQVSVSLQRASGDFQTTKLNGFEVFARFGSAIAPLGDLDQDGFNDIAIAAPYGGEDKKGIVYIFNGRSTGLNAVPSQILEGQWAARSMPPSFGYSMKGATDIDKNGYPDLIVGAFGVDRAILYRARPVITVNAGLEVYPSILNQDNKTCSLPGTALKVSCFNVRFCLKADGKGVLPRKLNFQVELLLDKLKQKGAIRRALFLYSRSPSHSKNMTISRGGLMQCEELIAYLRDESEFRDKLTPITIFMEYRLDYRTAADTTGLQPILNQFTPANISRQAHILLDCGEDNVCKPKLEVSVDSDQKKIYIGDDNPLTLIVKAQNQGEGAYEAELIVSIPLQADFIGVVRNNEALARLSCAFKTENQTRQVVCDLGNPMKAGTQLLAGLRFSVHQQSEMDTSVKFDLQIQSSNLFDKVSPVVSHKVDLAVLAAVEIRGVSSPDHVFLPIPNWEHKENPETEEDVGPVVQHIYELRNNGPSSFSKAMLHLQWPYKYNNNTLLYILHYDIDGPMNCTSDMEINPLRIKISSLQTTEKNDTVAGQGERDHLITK
T2 sequence (P06756 891-1048 partner limits assumed): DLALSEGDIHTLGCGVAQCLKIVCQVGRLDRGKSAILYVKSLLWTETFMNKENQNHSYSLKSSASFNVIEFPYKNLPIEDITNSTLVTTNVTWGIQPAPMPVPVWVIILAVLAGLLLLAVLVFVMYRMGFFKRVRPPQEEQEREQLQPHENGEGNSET
T2 sequence (P05106 27-788): as the sequence (P05106 27-788) above
T3 sequence (P06756 31-889 limits assumed): as the sequence (P06756 31-889 limits assumed) above
T3 sequence (P06756 891-1048 partner limits assumed): as the sequence (P06756 891-1048 partner limits assumed) above
T3 sequence (P05106 27-788): as the sequence (P05106 27-788) above

| Structure (SMILES) | IC50 at 72 h [1] [µM] | IC50 (GP IIb-IIIa (αIIbβ3)) [µM] | IC50 (placental αvβ3) [µM] | CAM inhibition of capillary formation ([2]; 3 μg/mesh, +VPF) [%] | CAM inhibition of capillary formation ([2]; 3 μg/mesh, −VPF) [%] | CAM inhibition of capillary formation ([2]; 17 μg/mesh, +VPF) [%] | CAM inhibition of capillary formation ([2]; 17 μg/mesh, −VPF) [%] | CAM inhibition of capillary formation ([2]; 33 μg/mesh, +VPF) [%] | CAM inhibition of capillary formation ([2]; 33 μg/mesh, −VPF) [%] | IC50 at 72 h [3] [µM] | IC50 (αvβ3; [6]) [µM] | IC50 (αvβ3; [7]) [µM] | IC50 at 72 h [4] [µM] | IC50 (α5β1) [µM] | IC50 at 72 h [5] [µM] | IC50 (αvβ5) [µM] | IC50 (αvβ5; [8]) [µM] | IC50 (GP IIb-IIIa (αIIbβ3); [9]) [µM] | IC50 (placental αvβ3; [10]) [µM] | IC50 (αvβ3; [11]) [µM] |
| --- | --- | --- | --- | --- | --- | --- | --- | --- | --- | --- | --- | --- | --- | --- | --- | --- | --- | --- | --- | --- |
| N=C(N)NCCCOc1ccc2cc(C(=O)NC[C@H](NS(=O)(=O)c3ccccc3)C(=O)O)cc(=O)n2c1 [Compound XV, (S)-2-Benzenesulfonylamino-3-{[7-(3-guanidino-propoxy)-4-oxo-4H-quinolizine-2-carbonyl]-amino}-propionic Acid Hydrochloride] | > 100 | 0.0053 | 0.015 | 7 | 2 | 7 | 9 | 10 | 8 | 17 | 0.5 ± 0.2 | 2.5 ± 1.5 | > 100 | > 10 | 16 ± 4 | – | – | – | – | – |
| N=C(N)NCCOc1ccc2cc(C(=O)NC[C@H](NS(=O)(=O)c3ccccc3)C(=O)O)cc(=O)n2c1 [Compound XX, (S)-2-Benzenesulfonylamino-3-{[7-(2-guanidino-ethoxy)-4-oxo-4H-quinolizine-2-carbonyl]-amino}-propionic Acid Hydrochloride] | > 100 | 0.0079 | 0.1 | – | – | – | – | – | – | 21 | 2.3 ± 2 | > 10 | 100 | > 10 | 35 ± 22 | > 10 | – | – | – | – |
| N=C(N)NCC1CCc2cc(C(=O)NCC(NS(=O)(=O)c3ccccc3)C(=O)O)cc(=O)n2C1 [Compound XXIX, (2S, 7R) and (2S, 7S)-2-Benzenesulfonylamino-3-[(7-guanidinomethyl-4-oxo-6,7,8,9-tetrahydro-4H-quinolizine-2-carbonyl)-amino]-propionic Acid] | > 100 | – | – | 10 | 4 | 12 | 8 | 14 | 13 | 23 | – | – | 13 | > 10 | 1 ± 0.2 | – | 3.2 ± 1.6 | 0.094 | 0.0042 | 0.16 ± 0.01 |
| Cl.N=C(N)NCc1ccc2cc(C(=O)NC[C@H](NS(=O)(=O)c3ccccc3)C(=O)O)cc(=O)n2c1 [Compound XXVII, (S)-2-Benzenesulfonylamino-3-[(7-guanidinomethyl-4-oxo-4H-quinolizine-2-carbonyl)-amino]-propionic Acid Hydrochloride] | > 100 | – | – | 9 | 5 | 12 | 11 | 19 | 16 | > 100 | – | – | > 100 | > 10 | 1.2 ± 0.4 | – | 5.8 ± 3.6 | 0.25 | 0.015 | 0.43 ± 0.18 |
